Measured values as given in ChEMBL document CHEMBL1201862, “PubChem BioAssay data set” (2004).
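96-well plates; 48 h exposure; 5 concentrations. Endpoints by linear interpolation between flanking doses. Not reached: highest tested concentration assigned. The concentration for 50% growth inhibition is given as GI50.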 Calls of active or inactive are those of the source. Cut-off read from the data, not from the text of the source: active = GI50 up to about 1.1 µM and inactive = higher.

Key:
Assay in all cases: inhibition of tumour cell growth, NCI panel, 48 h
A549 = tested on: A549
BT-549 = tested on: BT-549
EKVX = tested on: EKVX
HCT-15 = tested on: HCT-15
Hs-578T = tested on: Hs-578T
KM12 = tested on: KM12
LOX IMVI = tested on: LOX IMVI
MDA-MB-231 = tested on: MDA-MB-231
MDA-MB-435 = tested on: MDA-MB-435
NCI-H522 = tested on: NCI-H522
NCI/ADR-RES = tested on: NCI/ADR-RES
OVCAR-8 = tested on: OVCAR-8
RPMI-8226 = tested on: RPMI-8226
RXF 393 = tested on: RXF 393
SF-268 = tested on: SF-268
SK-OV-3 = tested on: SK-OV-3
SR = tested on: SR
UO-31 = tested on: UO-31
NCI-H23 = tested on: NCI-H23
HOP-92 = tested on: HOP-92

| Compound | GI50 (A549) | GI50 (BT-549) | GI50 (EKVX) | GI50 (HCT-15) | GI50 (Hs-578T) | GI50 (KM12) | GI50 (LOX IMVI) | GI50 (MDA-MB-231) | GI50 (MDA-MB-435) | GI50 (NCI-H522) | GI50 (NCI/ADR-RES) | GI50 (OVCAR-8) | GI50 (RPMI-8226) | GI50 (RXF 393) | GI50 (SF-268) | GI50 (SK-OV-3) | GI50 (SR) | GI50 (UO-31) | GI50 (NCI-H23) | GI50 (HOP-92) |
| --- | --- | --- | --- | --- | --- | --- | --- | --- | --- | --- | --- | --- | --- | --- | --- | --- | --- | --- | --- | --- |
| O=Cc1ccccc1B(O)O | 12.7 µM (inactive) | 15.1 µM (inactive) | < 0.01 µM (active) | 62.7 µM | 0.231 µM (active) | > 100 µM (inactive) | 20.7 µM (inactive) | 37.8 µM (inactive) | 99.1 µM (inactive) | 22.9 µM (inactive) | 52 µM (inactive) | 67.8 µM (inactive) | < 0.01 µM (active) | 15.7 µM (inactive) | > 100 µM (inactive) | > 100 µM (inactive) | < 0.01 µM (active) | 54.1 µM (inactive) | – | – |
| Cc1nn(C(=O)c2ccccc2O)c2c1C(c1ccc(O)cc1)SC(=N)N2 (stereo unspecified) | 1.26 µM (inactive) | > 10 µM (inactive) | > 4 µM (inactive) | 1.75 µM | 0.449 µM (active) | > 2.15 µM (inactive) | 1.36 µM (inactive) | > 3.18 µM (inactive) | 1.21 µM (inactive) | > 3.29 µM (inactive) | 2.03 µM (inactive) | > 2.47 µM (inactive) | – | 1.23 µM (inactive) | 3.45 µM (inactive) | 2.25 µM (inactive) | 1.44 µM (inactive) | 7.55 µM (inactive) | 1.83 µM (inactive) | – |
| COC(=O)c1cc2c3c(c1)Oc1cc(C(=O)OC)cc4c1C3c1c(cc(C(=O)OC)cc1O4)O2 | 12.6 µM (inactive) | 20.5 µM (inactive) | 16.4 µM (inactive) | > 32 µM | 15.3 µM (inactive) | 10.1 µM (inactive) | 5.92 µM (inactive) | 17.1 µM (inactive) | 9.68 µM (inactive) | 3.19 µM (inactive) | 0.163 µM (active) | – | 6.44 µM (inactive) | 0.406 µM (active) | 9.18 µM (inactive) | 16.6 µM (inactive) | 13.8 µM (inactive) | 21 µM (inactive) | 25.1 µM (inactive) | 19.4 µM (inactive) |
| CC(C)(C)OC(=O)[C@@H]1CCC(=O)N1C1(c2ccccc2)c2ccccc2-c2ccccc21 | 35.2 µM (inactive) | > 100 µM (inactive) | 82.8 µM (inactive) | 55.5 µM | 33.5 µM (inactive) | 43.3 µM (inactive) | 17.9 µM (inactive) | 16.4 µM (inactive) | 30.1 µM (inactive) | 26.9 µM (inactive) | > 100 µM (inactive) | 88.1 µM (inactive) | – | 9.77 µM (inactive) | > 100 µM (inactive) | > 100 µM (inactive) | 38.5 µM (inactive) | 67.3 µM (inactive) | 62.4 µM (inactive) | 26.3 µM (inactive) |
| COc1ccc(C(CC2(c3ccc(OC)cc3)SCCCS2)NC(C)=O)cc1 (stereo unspecified) | 55.8 µM (inactive) | 41.9 µM (inactive) | 52.8 µM (inactive) | 37 µM | 86.7 µM (inactive) | 45.4 µM (inactive) | 85.5 µM (inactive) | > 100 µM (inactive) | 40.7 µM (inactive) | 29.2 µM (inactive) | 21.2 µM (inactive) | 42.3 µM (inactive) | 38.5 µM (inactive) | 67.9 µM (inactive) | 87.3 µM (inactive) | 40.8 µM (inactive) | 71.3 µM (inactive) | 96.4 µM (inactive) | 29.4 µM (inactive) | 83.6 µM (inactive) |
| Nc1nc2c(c(-c3ccccc3Cl)n1)COC/C2=C\c1ccccc1Cl | – | 16 µM (inactive) | 18.3 µM (inactive) | 15.9 µM | 21.8 µM (inactive) | 17.9 µM (inactive) | 18.7 µM (inactive) | 16.9 µM (inactive) | 10.3 µM (inactive) | 14.6 µM (inactive) | 16.8 µM (inactive) | 16 µM (inactive) | 10.6 µM (inactive) | 16 µM (inactive) | 16.9 µM (inactive) | 16.1 µM (inactive) | 5.16 µM (inactive) | 17.1 µM (inactive) | 17.1 µM (inactive) | 14.8 µM (inactive) |
| Cc1c(-c2ccccc2)c(C#N)c2nnn(-c3ccc([N+](=O)[O-])cc3)c(=O)n12 | – | 26.9 µM (inactive) | 6.32 µM (inactive) | 20.7 µM | 14.1 µM (inactive) | 12.7 µM (inactive) | 17.5 µM (inactive) | 8.15 µM (inactive) | 24.8 µM (inactive) | 10.2 µM (inactive) | 15.9 µM (inactive) | 10.9 µM (inactive) | 20.7 µM (inactive) | 17.4 µM (inactive) | 12.7 µM (inactive) | 23.4 µM (inactive) | 7.31 µM (inactive) | – | 21.3 µM (inactive) | 16.5 µM (inactive) |
| COc1cc(C(=O)Oc2ccc3c(c2)OCO3)cc(OC)c1OC | > 100 µM (inactive) | > 100 µM (inactive) | – | > 100 µM | > 100 µM (inactive) | > 100 µM (inactive) | > 100 µM (inactive) | > 100 µM (inactive) | > 100 µM (inactive) | > 100 µM (inactive) | > 100 µM (inactive) | > 100 µM (inactive) | > 100 µM (inactive) | > 100 µM (inactive) | > 100 µM (inactive) | > 100 µM (inactive) | > 100 µM (inactive) | > 100 µM (inactive) | > 100 µM (inactive) | > 100 µM (inactive) |
| Nc1nc2c(c(-c3ccc(F)cc3)n1)COC/C2=C\c1ccc(F)cc1 | – | 43.5 µM (inactive) | 18.6 µM (inactive) | > 100 µM | 33.4 µM (inactive) | 15.7 µM (inactive) | – | > 100 µM (inactive) | 41.2 µM (inactive) | 10.8 µM (inactive) | 65.8 µM (inactive) | 58.2 µM (inactive) | 71.6 µM (inactive) | 52.7 µM (inactive) | 14.5 µM (inactive) | > 100 µM (inactive) | 17 µM (inactive) | 14.7 µM (inactive) | 45.6 µM (inactive) | 30.4 µM (inactive) |
| Cc1cccc(NC(=S)NNC(=O)c2cc(-c3ccccc3)nc3ccccc23)c1 | 25.4 µM (inactive) | 47.9 µM (inactive) | – | 36.7 µM | 37 µM (inactive) | 31.8 µM (inactive) | – | 27.9 µM (inactive) | 28.4 µM (inactive) | 26.2 µM (inactive) | 36.7 µM (inactive) | 39.8 µM (inactive) | 30.1 µM (inactive) | 25.4 µM (inactive) | 42 µM (inactive) | 25.6 µM (inactive) | 17.9 µM (inactive) | 23.1 µM (inactive) | 27.9 µM (inactive) | 26.2 µM (inactive) |
| COc1ccc(/N=N/C(=N\c2ccc(F)cc2)c2ccc(N(CCC#N)CCC#N)cc2)cc1 | 18.7 µM (inactive) | 17.5 µM (inactive) | 34.4 µM (inactive) | 54 µM | 27.4 µM (inactive) | 16.9 µM (inactive) | – | 14.3 µM (inactive) | 39.2 µM (inactive) | 20 µM (inactive) | > 100 µM (inactive) | 33.5 µM (inactive) | 39.2 µM (inactive) | 15.4 µM (inactive) | 35.2 µM (inactive) | 58.5 µM (inactive) | 21.7 µM (inactive) | 68.5 µM (inactive) | 17.4 µM (inactive) | 25.6 µM (inactive) |
| COc1cc(C2S/C(=C/c3ccccc3)C(=O)N2c2ccc(NC(C)=O)cc2)cc(OC)c1OC (stereo unspecified) | 23.8 µM (inactive) | 16.3 µM (inactive) | 9.71 µM (inactive) | 15 µM | 21.2 µM (inactive) | 14.1 µM (inactive) | 18.2 µM (inactive) | 14.2 µM (inactive) | 18.2 µM (inactive) | 10.1 µM (inactive) | 23.4 µM (inactive) | 18.5 µM (inactive) | – | 17.5 µM (inactive) | 17.9 µM (inactive) | 35.2 µM (inactive) | 18.9 µM (inactive) | 24 µM (inactive) | 20 µM (inactive) | 20.2 µM (inactive) |
| CCN(C(=O)N[C@H](C(=O)N[C@@H](C)C(=O)OC)C(C)C)c1ccccc1 | > 100 µM (inactive) | 60.4 µM (inactive) | > 100 µM (inactive) | 32.4 µM | 32.9 µM (inactive) | 39.6 µM (inactive) | > 100 µM (inactive) | > 100 µM (inactive) | 21.2 µM (inactive) | 19 µM (inactive) | > 100 µM (inactive) | 24.5 µM (inactive) | 33.4 µM (inactive) | 39.5 µM (inactive) | > 100 µM (inactive) | > 100 µM (inactive) | 31.2 µM (inactive) | 43.3 µM (inactive) | 64.3 µM (inactive) | 24 µM (inactive) |
| O=c1c(-c2ccccc2)nnc2n(Cc3ccccc3)c3ccccc3n12 | > 100 µM (inactive) | > 100 µM (inactive) | > 100 µM (inactive) | > 100 µM | > 100 µM (inactive) | > 100 µM (inactive) | > 100 µM (inactive) | > 100 µM (inactive) | > 100 µM (inactive) | 26.7 µM (inactive) | > 100 µM (inactive) | > 100 µM (inactive) | – | 95.1 µM (inactive) | > 100 µM (inactive) | – | > 100 µM (inactive) | > 100 µM (inactive) | > 100 µM (inactive) | 28.6 µM (inactive) |
| C[N+]1(C)[C@@H]2CC[C@H]1C[C@@H](OC(=O)C(CO)c1ccccc1)C2 (stereo partly specified) [ATROPINE METHYLBROMIDE] | > 100 µM (inactive) | > 100 µM (inactive) | > 100 µM (inactive) | > 100 µM | > 100 µM (inactive) | > 100 µM (inactive) | > 100 µM (inactive) | > 100 µM (inactive) | > 100 µM (inactive) | > 100 µM (inactive) | > 100 µM (inactive) | > 100 µM (inactive) | > 100 µM (inactive) | > 100 µM (inactive) | > 100 µM (inactive) | > 100 µM (inactive) | > 100 µM (inactive) | > 100 µM (inactive) | > 100 µM (inactive) | – |
